Converted amounts (≈) assume the structure as drawn. Where a SMILES comes first, the peptide text is derived from it. Bridges are numbered along the chain shown (N, C = ends). Roman numbers before positions name the chains, in order. [ ]: non-standard residue; d: D form. The star is where a group is joined. aThr = C[C@H](O)[C@H](N)C(=O)O; Tle = CC(C)(C)[C@H](N)C(=O)O; dDab = NCC[C@@H](N)C(=O)O; Nle = CCCC[C@H](N)C(=O)O; Dab = NCC[C@H](N)C(=O)O; Nva = CCC[C@H](N)C(=O)O; Abu = CC[C@H](N)C(=O)O; Dap = NC[C@H](N)C(=O)O; Propionyl = CCC(=O)*
Columns and labels:
Type in all cases: cell-based
[1] = system: Acinetobacter baumannii 872842; settings: 872842
Procedure, shortened: (§1)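 Visible-growth endpoint after 18-20 h at 35° C defines the MIC (μg/mL). Setup: CLSI broth microdilution, MH-II cation-adjusted broth with P-80 at 0.002% final, inoculum of approximately 10^6 CFU/mL, two-fold serial peptide dilutions.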

[2] = system: Acinetobacter baumannii DSM 30008; settings: DSM 30008
Procedure, shortened: as §1

[3] = system: Enterobacter cloacae 848840; settings: 848840
Procedure, shortened: as §1

Escherichia coli 926415 = settings: 926415
Procedure, shortened: as §1

[4] = system: Escherichia coli ATCC 25922; settings: ATCC 25922
Procedure, shortened: as §1

[5] = system: Klebsiella pneumoniae 968733; settings: 968733
Procedure, shortened: as §1

[6] = system: Klebsiella pneumoniae SSI #3010; settings: SSI #3010
Procedure, shortened: as §1

[7] = system: Pseudomonas aeruginosa ATCC 27853; settings: ATCC 27853
Procedure, shortened: as §1

[8] = system: human red blood cells (hRBC); experiment: Hemolysis; settings: red cells of human, 1 h, 200
Procedure, shortened: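 Percent hemolysis relative to 2% Triton X-100 (100%) and PBS/10% water (0%), from blank-corrected OD540 of diluted supernatants. Peptides tested at 200 μg/mL against 20% (v/v) washed human erythrocytes, 1 h, 37° C, shaking at 300 rpm.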

Row | Structure (SMILES) | MIC [1] [µg/mL] | MIC [2] [µg/mL] | MIC [3] [µg/mL] | MIC (Escherichia coli 926415) [µg/mL] | MIC [4] [µg/mL] | MIC [5] [µg/mL] | MIC [6] [µg/mL] | MIC [7] [µg/mL] | Hemolysis at 200 μg/mL [8] [%]
1 | CC(=O)N[C@H](C(=O)N[C@H]1CSSC[C@@H](C(=O)N[C@H](C(N)=O)[C@@H](C)O)NC(=O)[C@H](C(C)(C)C)NC(=O)[C@H](CO)NC(=O)[C@H](Cc2c[nH]c3ccccc23)NC(=O)[C@H](CO)NC(=O)[C@@H](CCN)NC(=O)[C@H](CCC(=O)N[C@@H](CCN)C(=O)N[C@H](C(=O)N[C@@H](CN)C(=O)N[C@H]2CCNC(=O)[C@H]([C@@H](C)O)NC(=O)[C@H](CCN)NC(=O)[C@H](CCN)NC(=O)[C@H]([C@H](C)O)NC(=O)[C@@H](CC(C)C)NC(=O)[C@H](CCN)NC2=O)[C@@H](C)O)NC(=O)[C@H](CCN)NC(=O)[C@H](Cc2ccc(O)cc2)NC1=O)C(C)C [Ex. 140] (I: Ac-VCY[Dab]E[dDab]SWS[Tle]CT-NH2 / II: [Dab]T[Dap][Dab][Dab][dL][aThr][Dab][Dab]T; disulfide I:2-I:11; amide I:5-II:N; lactam II:4-II:C) | 0.5 (≈ 0.207 µM) | 0.125 (≈ 0.0518 µM) | 0.25 (≈ 0.104 µM) | 0.25 (≈ 0.104 µM) | 0.125 (≈ 0.0518 µM) | 0.5 (≈ 0.207 µM) | 0.125 (≈ 0.0518 µM) | 0.25 (≈ 0.104 µM) | <1
2 | CCC[C@@H]1NC(=O)[C@@H](CC(C)C)NC(=O)[C@H](CCN)NC(=O)[C@@H](NC(=O)[C@H](CN)NC(=O)[C@@H](NC(=O)[C@H](CCN)NC(=O)CC[C@@H]2NC(=O)[C@H](CCN)NC(=O)[C@H](Cc3ccc(O)cc3)NC(=O)[C@@H](NC(=O)[C@@H](NC(C)=O)C(C)C)CSSC[C@@H](C(=O)N[C@H](C(N)=O)[C@@H](C)O)NC(=O)[C@H](C(C)(C)C)NC(=O)[C@H](CO)NC(=O)[C@H](Cc3c[nH]c4ccccc34)NC(=O)[C@H](CO)NC(=O)[C@@H](CCN)NC2=O)[C@@H](C)O)CCNC(=O)[C@H]([C@@H](C)O)NC(=O)[C@H](CCN)NC(=O)[C@H](CCN)NC1=O [Ex. 141] (I: Ac-VCY[Dab]E[dDab]SWS[Tle]CT-NH2 / II: [Dab]T[Dap][Dab][Dab][dL][Nva][Dab][Dab]T; disulfide I:2-I:11; amide I:5-II:N; lactam II:4-II:C) | 0.0625 (≈ 0.0259 µM) | 0.03125 (≈ 0.013 µM) | 0.0625 (≈ 0.0259 µM) | 0.03125 (≈ 0.013 µM) | 0.03125 (≈ 0.013 µM) | 0.03125 (≈ 0.013 µM) | 0.03125 (≈ 0.013 µM) | 0.125 (≈ 0.0518 µM) | 2
3 | CCCC[C@H](NC(C)=O)C(=O)N[C@H]1CSSC[C@@H](C(=O)N[C@H](C(N)=O)[C@@H](C)O)NC(=O)[C@H](C(C)(C)C)NC(=O)[C@H](CO)NC(=O)[C@H](Cc2c[nH]c3ccccc23)NC(=O)[C@H](CO)NC(=O)[C@@H](CCN)NC(=O)[C@H](CCC(=O)N[C@@H](CCN)C(=O)N[C@H](C(=O)N[C@@H](CN)C(=O)N[C@H]2CCNC(=O)[C@H]([C@@H](C)O)NC(=O)[C@H](CCN)NC(=O)[C@H](CCN)NC(=O)[C@H](CC)NC(=O)[C@@H](CC(C)C)NC(=O)[C@H](CCN)NC2=O)[C@@H](C)O)NC(=O)[C@H](CCN)NC(=O)[C@H](Cc2ccc(O)cc2)NC1=O [Ex. 142] (I: Ac-[Nle]CY[Dab]E[dDab]SWS[Tle]CT-NH2 / II: [Dab]T[Dap][Dab][Dab][dL][Abu][Dab][Dab]T; disulfide I:2-I:11; amide I:5-II:N; lactam II:4-II:C) | 0.03125 (≈ 0.013 µM) | 0.03125 (≈ 0.013 µM) | 0.125 (≈ 0.0518 µM) | 0.03125 (≈ 0.013 µM) | 0.0625 (≈ 0.0259 µM) | 0.0625 (≈ 0.0259 µM) | 0.03125 (≈ 0.013 µM) | 0.125 (≈ 0.0518 µM) | <1
4 | CC[C@@H]1NC(=O)[C@@H](CC(C)C)NC(=O)[C@H](CCN)NC(=O)[C@@H](NC(=O)[C@H](CN)NC(=O)[C@@H](NC(=O)[C@H](CCN)NC(=O)CC[C@@H]2NC(=O)[C@H](CCN)NC(=O)[C@H](Cc3ccc(O)cc3)NC(=O)[C@@H](NC(=O)[C@@H](NC(C)=O)C(C)C)CSSC[C@@H](C(=O)N[C@H](C(N)=O)[C@@H](C)O)NC(=O)[C@H]([C@@H](C)CC)NC(=O)[C@H](CO)NC(=O)[C@H](Cc3c[nH]c4ccccc34)NC(=O)[C@H](CO)NC(=O)[C@@H](CCN)NC2=O)[C@@H](C)O)CCNC(=O)[C@H]([C@@H](C)O)NC(=O)[C@H](CCN)NC(=O)[C@H](CCN)NC1=O [Ex. 143] (I: Ac-VCY[Dab]E[dDab]SWSICT-NH2 / II: [Dab]T[Dap][Dab][Dab][dL][Abu][Dab][Dab]T; disulfide I:2-I:11; amide I:5-II:N; lactam II:4-II:C) | 0.03125 (≈ 0.013 µM) | 0.0625 (≈ 0.0261 µM) | 0.0625 (≈ 0.0261 µM) | 0.125 (≈ 0.0521 µM) | 0.03125 (≈ 0.013 µM) | 0.0625 (≈ 0.0261 µM) | 0.0625 (≈ 0.0261 µM) | 0.125 (≈ 0.0521 µM) | 2
5 | CCC(=O)N[C@H](C(=O)N[C@H]1CSSC[C@@H](C(=O)N[C@@H](CO)C(N)=O)NC(=O)[C@H](C(C)(C)C)NC(=O)[C@H](CO)NC(=O)[C@H](Cc2c[nH]c3ccccc23)NC(=O)[C@H](CO)NC(=O)[C@@H](CCN)NC(=O)[C@H](CCC(=O)N[C@@H](CCN)C(=O)N[C@H](C(=O)N[C@@H](CN)C(=O)N[C@H]2CCNC(=O)[C@H]([C@@H](C)O)NC(=O)[C@H](CCN)NC(=O)[C@H](CCN)NC(=O)[C@H](CC(C)C)NC(=O)[C@@H](CC(C)C)NC(=O)[C@H](CCN)NC2=O)[C@@H](C)O)NC(=O)[C@H](CCN)NC(=O)[C@H](Cc2ccc(O)cc2)NC1=O)C(C)C [Ex. 144] (I: Propionyl-VCY[Dab]E[dDab]SWS[Tle]CS-NH2 / II: [Dab]T[Dap][Dab][Dab][dL]L[Dab][Dab]T; disulfide I:2-I:11; amide I:5-II:N; lactam II:4-II:C) | 0.0625 (≈ 0.0258 µM) | 0.0625 (≈ 0.0258 µM) | 0.125 (≈ 0.0515 µM) | 0.0625 (≈ 0.0258 µM) | 0.03125 (≈ 0.0129 µM) | 0.0625 (≈ 0.0258 µM) | 0.0625 (≈ 0.0258 µM) | 0.125 (≈ 0.0515 µM) | <1
6 | CNC(=O)[C@H](CO)NC(=O)[C@@H]1CSSC[C@H](NC(=O)[C@@H](NC(C)=O)C(C)C)C(=O)N[C@@H](Cc2ccc(O)cc2)C(=O)N[C@@H](CCN)C(=O)N[C@@H](CCC(=O)N[C@@H](CCN)C(=O)N[C@H](C(=O)N[C@@H](CN)C(=O)N[C@H]2CCNC(=O)[C@H]([C@@H](C)O)NC(=O)[C@H](CCN)NC(=O)[C@H](CCN)NC(=O)[C@H](CC(C)C)NC(=O)[C@@H](CC(C)C)NC(=O)[C@H](CCN)NC2=O)[C@@H](C)O)C(=O)N[C@H](CCN)C(=O)N[C@@H](CO)C(=O)N[C@@H](Cc2c[nH]c3ccccc23)C(=O)N[C@@H](CO)C(=O)N[C@@H](C(C)(C)C)C(=O)N1 [Ex. 145] (I: Ac-VCY[Dab]E[dDab]SWS[Tle]CS-NHMe / II: [Dab]T[Dap][Dab][Dab][dL]L[Dab][Dab]T; disulfide I:2-I:11; amide I:5-II:N; lactam II:4-II:C) | 0.03125 (≈ 0.0129 µM) | 0.0625 (≈ 0.0258 µM) | 0.125 (≈ 0.0515 µM) | 0.0625 (≈ 0.0258 µM) | 0.0625 (≈ 0.0258 µM) | 0.125 (≈ 0.0515 µM) | 0.125 (≈ 0.0515 µM) | 0.125 (≈ 0.0515 µM) | 2
7 | CC(=O)N[C@H](C(=O)N[C@H]1CCNC(=O)CC[C@@H](C(=O)N[C@@H](CO)C(N)=O)NC(=O)[C@H](C(C)(C)C)NC(=O)[C@H](CO)NC(=O)[C@H](Cc2c[nH]c3ccccc23)NC(=O)[C@H](CO)NC(=O)[C@@H](CCN)NC(=O)[C@H](CCC(=O)N[C@@H](CCN)C(=O)N[C@H](C(=O)N[C@@H](CN)C(=O)N[C@H]2CCNC(=O)[C@H]([C@@H](C)O)NC(=O)[C@H](CCN)NC(=O)[C@H](CCN)NC(=O)[C@H](CC(C)C)NC(=O)[C@@H](CC(C)C)NC(=O)[C@H](CCN)NC2=O)[C@@H](C)O)NC(=O)[C@H](CN)NC(=O)[C@H](Cc2ccc(O)cc2)NC1=O)C(C)C [Ex. 146] (I: Ac-V[Dab]Y[Dap]E[dDab]SWS[Tle]ES-NH2 / II: [Dab]T[Dap][Dab][Dab][dL]L[Dab][Dab]T; lactam I:2-I:11, II:4-II:C; amide I:5-II:N) | 0.125 (≈ 0.052 µM) | 0.0625 (≈ 0.026 µM) | 0.25 (≈ 0.104 µM) | 0.25 (≈ 0.104 µM) | 0.0625 (≈ 0.026 µM) | 0.25 (≈ 0.104 µM) | 0.0625 (≈ 0.026 µM) | 0.125 (≈ 0.052 µM) | <1

— patent US11629171B2, “Beta-hairpin peptidomimetics” (POLYPHOR AG, priority 2017, dated 2023)
